Paper PMC10816808, “Enhancement of the Antitumor and Antimetastatic Effect of Topotecan and Normalization of Blood Counts in Mice with Lewis Carcinoma by Tdp1 Inhibitors—New Usnic Acid Derivatives” (International Journal of Molecular Sciences, 2024)
Values joined by “and” are separate entries in the source; they are usually repeats but may differ in a detail not shown here. Equal entries are not always repeated.

What was measured:
[1] = system: Krebs-2 ascitic carcinoma; assay: Antitumor effect in the Krebs-2 ascitic carcinoma model; assay type: in vivo, mice; settings: for average ascites weight: C57BL mice with Krebs-2, single dose on day 4; for average ascites weight / Average number of tumor cells in ascites: mean ± SD; for Ascites weight / Total number of tumor cells / Tumor cell concentration: individual animals; for Ascites weight / Total number of tumor cells / Tumor cell concentration / Average number of tumor cells in ascites: mice with Krebs-2
Description: The Krebs-2 cancer cell line was obtained from the cell depository of the Institute of Cytology and Genetics SB RAS (Novosibirsk, Russia), and is maintained in mice as a transplanted tumor. Krebs-2 carcinoma is nonspecific to the different genetic constitutions of mice and is weakly immunogenic for mice of all strains. The biological source of Krebs-2 is the epithelial cells of the abdominal wall of the mouse. With intraperitoneal transplantation of tumor cells, an ascitic form is formed.
The effect of the drugs was assessed by the weight of ascites and the number of tumor cells in it.
Strain-nonspecific Krebs-2 ascitic carcinoma was grafted to C57BL mice. Tumor cells were suspended in 0.9% NaCl prior to grafting and injected intraperitoneally (2 million cells per mouse, in 0.2 mL). An ascitic tumor develops after intraperitoneal inoculation, has low immunogenicity, and produces no metastasis during the experiment at the used dose of tumor cells.
The mice were also divided into groups of 6–7 individuals. Treatment was carried out once on the 4th day after tumor transplantation: • - Group 1—Intact control—mice of this group were inoculated with a tumor, receiving 0.2 mL of saline intraperitoneally; • - Group 2—DMSO-Tween-80—mice were injected once intragastrically with a probe 200 μL of a solution containing saline, Tween-80 (10%), and DMSO (15%); • - Group 3—DMSO-Tween-80—mice were injected once intraperitoneally with a solvent for 7; • - Group 4—Tpc (aqueous solution)—mice were injected once intraperitoneally with 200 µL of Tpc at a single dose of 1 mg/kg; • - Group 5—Tpc + 7 i/g—mice received Tpc once as described for groups 3 and 7 in the form of 200 µL of suspension in Tween-80-DMSO once intragastrically at a dose of 50 mg/kg; • - Group 6—Tpc + 7 i/p—mice were injected with topotecan once as described for groups 3 and 7 in the form of 200 µL of suspension Tween-80-DMSO once intraperitoneally at a dose of 50 mg/kg; • - Group 7—7 i/g—mice were injected with 7 as described for group 5; • - Group 8—7 i/p—mice were injected with 7 as described for group 6.
The ascitic tumor weight and the cancer cell concentration in the ascitic fluid (as counted with a Goryaev chamber) were evaluated at the end of the experiment to estimate the effects of the substances. To prepare the samples for cell counting with a Goryaev chamber, 10 μL of the ascitic fluid was combined with 400 μL of saline (a 40-fold dilution). Cells were counted in five large squares, each divided into 16 small squares (80 squares in total) at a low magnification.

[2] = Toxic effect in mice with LLC (body weight, liver and spleen indices)
Description: (§1) We also studied the effect of topotecan, compound 7, and their combinations on changes in body weight of mice with LLC from days 1 to 18 after tumor transplantation and of mice with Krebs-2 carcinoma from days 1 to 8.
(§2) In addition, at the end of the experiments, we removed and weighed the liver and spleen, and calculated the liver and spleen indices.
(§3) The toxic effects of the substances were inferred from the changes in body weight during the experiment (the mice with LLC were weighed on days 1, 3, 5, 7, 10, 12, 14, 16, and 18 after grafting) and the liver and spleen weight indices at the end of the experiment.

[3] = Toxic effect in mice with Krebs-2 carcinoma (body weight, liver and spleen indices); assay type: in vivo; settings: for Weight of an individual with ascites / Weight of an individual without ascites: individual animals, mice with Krebs-2; for organ index, Liver (group mean) / organ index, Spleen (group mean): mice with Krebs-2 carcinoma
Description: as §1, §2, §3

[4] = Leukocyte and erythrocyte counts in peripheral blood of mice with Krebs-2 carcinoma; assay type: in vivo
Protocol: We also counted leukocytes and erythrocytes in mice with Krebs-2 carcinoma. […] An increase in white blood cell count in the peripheral blood is associated with the inflammatory process that develops during tumor formation and growth. […] It should be noted that topotecan at the dose of 1 mg/kg was not hemotoxic and partly normalized the concentrations of leukocytes and erythrocytes, apparently due to its antitumor effect. Treatment of mice with only compound 7, regardless of the route of administration, reduced the number of leukocytes somewhat more effectively than the drugs listed above, but the decrease was significant only in comparison with the control without treatment.
White and red blood cell counts were determined using a Goryaev chamber using a BIOSCOP-1 microscope (LOMO-MA, St. Petersburg, Russia).

[5] = Tpc 1 mg/kg i/p and/or 7 50 mg/kg i/p
[6] = 7 50 mg/kg i/g, alone or with Tpc 1 mg/kg i/p

Compound	average ascites weight [1, 5]	Ascites weight [1, 5]	Total number of tumor cells [1, 5]	Tumor cell concentration [1, 5]	Average number of tumor cells in ascites [1, 5]	changes in body weight of mice (in words) ([2]; mouse, in vivo)	organ index, Spleen (group mean) ([2]; mouse, in vivo)	Weight of an individual with ascites [3, 5]	Weight of an individual without ascites [3, 5]	organ index, Liver (group mean) ([3]; Topotecan and/or 7 i/p)	organ index, Spleen (group mean) ([3]; Topotecan and/or 7 i/p)	Concentration of erythrocytes in peripheral blood [4, 5]	Concentration of leukocytes in peripheral blood [4, 5]	further results
CC[C@@]1(O)C(=O)OCc2c1cc1n(c2=O)Cc2cc3c(CN(C)C)c(O)ccc3nc2-1 [Tpc, topotecan]	3±0,9 g	2.3 g and 5.6 g and 3.5 g and 2 g and 2.9 g and 2.4 g	218.5 million and 459.2 million and 266 million and 182 million and 188.5 million and 120 million and 148.8 million	95 million/ml and 82 million/ml and 76 million/ml and 91 million/ml and 65 million/ml and 50 million/ml and 62 million/ml	226,1±78 million	tendency towards an increase in the weight of animals	1.19±0.04%	21 g and 23.5 g and 23.4 g and 21.2 g and 22.9 g and 21.4 g and 21.9 g	18.7 g and 17.9 g and 19.9 g and 19.2 g and 20 g and 19 g and 19.5 g	4.8±0.6%	1.3±0.2%	7.6 ± 0.4 million/µL	11.2 ± 0.7 thousand/µL	tolerability / acute toxic effect (in words) ([2]; mice with LLC and mice with Krebs-2 carcinoma): well tolerated and did not cause acute toxic effect; organ index, Liver (group mean) ([2]; mouse, in vivo): 5.6±0.7%; hemotoxicity (in words) ([4]; dose of 1 mg/kg): not hemotoxic
C/C(NCCCc1cc(C(C)(C)C)c(O)c(C(C)(C)C)c1)=C1\C(=O)C=C2Oc3c(-c4csc(N/N=C/c5ccc(Br)cc5)n4)c(O)c(C)c(O)c3[C@@]2(C)C1=O [Compound 7, (4E)-10-{2-[(E)-2-[(4-bromophenyl)methylidene]hydrazin-1-yl]-1,3-thiazole-4-yl}-4-(1-{[3-(3,5-di-tret-butyl-4-hydroxyhenyl)propyl]amino}ethylidene)-11,13-dihydroxy-2,12-dimethyl-8-oxatricyclo [7.4.0.02,7]trideca-1(13),6,9,11-tetraen-3,5-dione]	4,1±1,4 g	3.1 g and 2.4 g and 4.5 g and 5.5 g and 2.1 g and 5.2 g and 6.2 g	204.6 million and 105.6 million and 234 million and 165 million and 44.1 million and 530.4 million and 576.6 million	66 million/ml and 44 million/ml and 52 million/ml and 30 million/ml and 21 million/ml and 102 million/ml and 93 million/ml	265,8±164,4 million	tendency towards an increase in the weight of animals	1.3±0.2%	21.5 g and 22.2 g and 21.3 g and 22.1 g and 23.4 g and 24.9 g	18.4 g and 19.8 g and 16.8 g and 16.6 g and 19.4 g and 18.2 g and 18.7 g	4.1±0.3%	1.0±0.1%	7 ± 0.6 million/µL	10.1 ± 0.9 thousand/µL	average ascites weight [1, 6]: 5±0,5 g; Ascites weight [1, 6]: 4.6 g and 6.2 g and 5.1 g and 4.5 g; Total number of tumor cells [1, 6]: 372.6 million and 403 million and 230 million and 209.1 million and 162 million; Tumor cell concentration [1, 6]: 81 million/ml and 65 million/ml and 50 million/ml and 41 million/ml and 36 million/ml; Average number of tumor cells in ascites [1, 6]: 275,3±90 million; tolerability / acute toxic effect (in words) ([2]; mouse, in vivo): well tolerated and did not cause acute toxic effect; Weight of an individual with ascites [3, 6]: 24.5 g and 22.7 g and 21 g and 23.3 g; Weight of an individual without ascites [3, 6]: 19.9 g and 16.5 g and 16.4 g and 19.4 g and 18.8 g; organ index, Liver (group mean) ([3]; 7 i/g, alone or with Topotecan): 4.4±0.5%; organ index, Spleen (group mean) ([3]; 7 i/g, alone or with Topotecan): 1.2±0.1%; Concentration of erythrocytes in peripheral blood [4, 6]: 7.2 ± 0.6 million/µL; Concentration of leukocytes in peripheral blood [4, 6]: 10.7 ± 0.8 thousand/µL
